The results in this text go back to publication PMC4509821 (International journal of antimicrobial agents, 2015).

In experiment [1] the test system is S. mutans biofilm. Description: Streptococcus mutans biofilm formation inhibition. The experiment is classed as cell-based. As to conditions: 16 h, read-out: IC50 Biofilm.
Experiment [2] deals with S. mutans dihydrofolate reductase (SmDHFR) (Streptococcus mutans, UniProt Q8DUI2). Description: SmDHFR enzymatic activity assay. Type of experiment: biochemical.
Experiment [3] has as its system Streptococcus sanguinis SK36. The experiment in a line: Streptococcus sanguinis cell growth and biofilm formation. As to conditions: 1.56 μM, P > 0.05. The experiment is classed as cell-based.
Experiment [4] has as its system Streptococcus mutans UA159. The experiment in a line: Streptococcus mutans cell growth inhibition. Type of experiment: cell-based.
Experiment [5] concerns Streptococcus gordonii DL1. Description: Streptococcus gordonii cell growth and biofilm formation. Type of experiment: cell-based. Conditions: 1.56 μM, P > 0.05.

Values after ≈ are worked out from the molar mass of the structure shown.

By IC50 is commonly meant the concentration that gives 50% inhibition. The term Ki denotes a measure of affinity in units of concentration, obtained from inhibition or displacement. The low end stands for tighter binding, the high end for weaker binding. A word on the MIC: it is the least concentration at which growth counts as inhibited. As for `COc1cc(NCc2ccc3nc(N)nc(N)c3c2C)cc(OC)c1OC` [TMQ, trimetrexate], the half-maximal inhibitory concentration (IC50) in experiment [1] came out at 49.1 ± 4.1 nM; in experiment [2], 2.2 ± 0.7 nM; in experiment [4] (UA159, read-out: IC50 Growth), 42.5 ± 3.22 nM. Also, the Ki in experiment [2] turned out to be 1.3 ± 0.4 nM. For the same compound, the “inhibition of biofilm formation of S. sanguinis” value in experiment [3] is “did not inhibit”. Also, in experiment [4] (UA159), the lowest concentration to inhibit growth (MIC) was 0.0488 µM (≈ 0.018 µg/mL). In experiment [5], the “inhibition of biofilm formation of S. gordonii” value is recorded as “did not inhibit”.
